Measured values as given in publication PMC2362044, “A potent nonporphyrin class of photodynamic therapeutic agent: cellular localisation, cytotoxic potential and influence of hypoxia” (British Journal of Cancer, 2005).
Where two headings read alike, the source gives them in different places.

Legend:
[1] = set-up: method as in Gorman et al, 2004; conditions: ref Gorman et al, 2004, cited from earlier work
[2] = system: HT-1080 cells; assay: Colorimetric survival (MTT) assay after photo-irradiation, normoxia; assay type: cell-based; conditions: Homo sapiens, HT-1080, 3 h incubation
Procedure: (§1) All cell lines unless otherwise stated were obtained from the American Type Culture Collection. HeLa, MRC5, HT-1080, MDA-MB-231, MCF-7 and T47-D cells were cultured in minimum essential medium (MEM) supplemented with 10% (v v^−1) foetal calf serum (FCS), 1% (v v^−1) non-essential amino acids, 50 U ml^−1 penicillin, 50 μg ml^−1 streptomycin, 20 mM HEPES and 1% (v v^−1) L-glutamine (Gibco-BRL). SW480, SW620 (obtained from Professor D Croke, Royal College of Surgeons, Dublin), A2780 and A2780cp70 cells (Obtained from Professor R Brown, Cancer Research UK, Beatson Laboratories, Glasgow) were cultured in RPMI-1640 medium plus the above-mentioned supplements. All cells were maintained in 5% CO2 (v v^−1) and 21% O2 (v v^−1) at 37°C unless otherwise stated.
(§2) Cells were seeded in 96-well flat-bottomed microtitre plates (5000 cells well^−1) and incubated at 37°C in a 5% CO2 incubator for 24 h. Cells were then incubated with varying concentrations of photosensitiser (1 × 10^−9 to 1 × 10^−4 M) in the dark for 3 h at 37°C. The ADPM compound-laden medium was then removed, the cells were washed with PBS and fresh culture medium was added to each well. This was followed by light irradiation with a broad-spectrum red light source (600–750 nm) via a Waldmann PDT1200L light delivery system. For this study, fluences (light exposures) of either 8 or 16 J cm^−2, at a dose rate of 80 mW cm^−2, were used. Following irradiation, the cells were incubated for a further 48 h before being assessed for cell viability by a standard MTT assay (Sigma). The subsequent colour change produced by viable cells was quantified using a plate reader (VICTOR^2 1420 multilabel HTS counter, Wallac). […] The dark toxicity of each compound was also assessed.
(§3) Prism ([…]) was used to graph the data obtained from the MTT assays and the uptake/clearance experiments. This program allows nonlinear regression analysis and the generation of sigmoidal dose–response curves. Prism also automatically calculates EC50 values. Statistical analysis was performed using the ANOVA test (Prism). Significant differences were detected using the Bonferroni multiple comparison test. P-values <0.05 were considered statistically significant.

[3] = system: T47-D cells; assay: as above; assay type: cell-based; conditions: Homo sapiens, T47D, 3 h incubation
Procedure: as §1, §2, §3

[4] = system: A2780 cells; assay: as above; assay type: cell-based; conditions: Homo sapiens, A2780, 3 h incubation
Procedure: as §1, §2, §3

[5] = system: MCF-7 cells; assay: as above; assay type: cell-based; conditions: Homo sapiens, MCF7, MCF-7, 3 h incubation
Procedure: as §1, §2, §3

[6] = system: SW620 cells; assay: as above; assay type: cell-based; conditions: Homo sapiens, SW-620, SW620, 3 h incubation
Procedure: as §1, §2, §3

[7] = system: HeLa cells; assay: as above; assay type: cell-based; conditions: Homo sapiens, normoxia 21% oxygen, 3 h incubation
Procedure: as §1, §2, §3

[8] = system: A2780cp70 cells; assay: as above; assay type: cell-based; conditions: Homo sapiens, A2780/CP70, A2780cp70, 3 h incubation
Procedure: as §1, §2, §3

[9] = system: MRC-5 cells; assay: as above; assay type: cell-based; conditions: Homo sapiens, MRC5, MRC-5, normoxia 21% oxygen, 3 h incubation
Procedure: as §1, §2, §3

[10] = system: MDA-MB-231 cells; assay: as above; assay type: cell-based; conditions: Homo sapiens, MDA-MB-231, 3 h incubation
Procedure: as §1, §2, §3

[11] = system: HeLa cells; assay: Flow cytometric assessment of apoptosis (Annexin-V/PI); assay type: cell-based, human
Procedure: (§4) Evaluation of apoptotic and necrotic cell populations was achieved using the ApoTarget Annexin-V FITC Apoptosis kit (BioSource International, Inc.). Cells (2.0 × 10^5) were seeded into 25 cm^2 flasks and treated with either ADPM01 or ADPM06 at respective EC50 or 10-fold EC50 concentration levels for 3 h, followed by irradiation with red light at 16 J cm^−2, as described above. Subsequently, cells were incubated for 4 and 16 h, with floating and adherent cells being collected at each time point by centrifugation and then stained with Annexin-V and propidium iodide (PI) as per the manufacturer's instructions. The percentage of cells at different phases of cell death, namely nonapoptotic (Annexin-V^−/PI^−), early apoptotic (Annexin-V^+/PI^−), and necrotic or late-stage apoptotic (Annexin-V^+/PI^+), was quantified using a EPICS XL-MCL flow cytometer (Coulter) and analysed using System II software, with at least 5000 cells being analysed for each run.

[12] = system: MRC5 cells; assay: as above; assay type: cell-based, human
Procedure: as §4

[13] = system: human tumour cell lines; assay: Light-induced toxicity (MTT) assays over a broad range of cell lines; assay type: cell-based; conditions: for EC50: Homo sapiens, read-out: EC50 values, range between the different cell lines
Procedure: as §1, §2, §3

[14] = 8 J cm^−2, read-out: EC50 (M) (8 J cm^−2)
[15] = 16 J cm^−2, read-out: EC50 (M) (16 J cm^−2)
[16] = 0 J cm^−2, read-out: EC50 (M) (dark)
[17] = 10-fold EC50 concentration, 16 h post-irradiation
[18] = EC50 concentration, 4 h post-irradiation
[19] = MRC5, 10-fold EC50 concentration, 16 h post-irradiation
[20] = MRC5, EC50 concentration, 4 h post-irradiation

COc1ccc(C2=[N+]3C(=Nc4c(-c5ccccc5)c(Br)c(-c5ccc(OC)cc5)n4[B-]3(F)F)C(c3ccccc3)=C2Br)cc1 [ADPM06]
strong absorbance band ([1]; formulated in CrEL/PBS): 683 nm | fluorescence quantum yield (Φf) [1]: 0.1 | EC50 [2, 14]: 7.9e-08 M | EC50 [2, 15]: 3.7e-08 M | EC50 [3, 14]: 1.6e-06 M | EC50 [3, 15]: 6.3e-07 M | EC50 [4, 14]: 1e-07 M | EC50 [4, 15]: 3.5e-08 M | EC50 [5, 14]: 1.2e-07 M | EC50 [5, 15]: 7.5e-08 M | EC50 [6, 14]: 7.5e-08 M | EC50 [6, 15]: 6e-08 M | EC50 [7, 16]: > 0.0001 M | EC50 [7, 14]: 6.3e-08 M | EC50 [7, 15]: 4.1e-08 M | EC50 [8, 14]: 6.2e-08 M | EC50 [8, 15]: 2.7e-08 M | EC50 [9, 16]: > 0.0001 M | EC50 [9, 14]: 3.7e-08 M | EC50 [9, 15]: 1.4e-08 M | EC50 [10, 14]: 1.4e-07 M | EC50 [10, 15]: 7.5e-08 M | cells in lower left quadrant (Annexin-V−/PI−, nonapoptotic) [11, 17]: 42.3% | cells in lower right quadrant (Annexin-V+/PI−, early apoptotic) [11, 17]: 34.1% | cells in upper left quadrant (PI+, Annexin-V−) [11, 17]: 0.6% | cells in upper right quadrant (Annexin-V+/PI+, necrotic or late-stage apoptotic) [11, 17]: 23.0% | cells in lower left quadrant (Annexin-V−/PI−, nonapoptotic) [11, 18]: 95.6% | cells in lower right quadrant (Annexin-V+/PI−, early apoptotic) [11, 18]: 3.88% | cells in upper left quadrant (PI+, Annexin-V−) [11, 18]: 0.20% | cells in upper right quadrant (Annexin-V+/PI+, necrotic or late-stage apoptotic) [11, 18]: 0.30% | cells in lower left quadrant (Annexin-V−/PI−, nonapoptotic) [12, 19]: 28.6% | cells in lower right quadrant (Annexin-V+/PI−, early apoptotic) [12, 19]: 45.4% | cells in upper left quadrant (PI+, Annexin-V−) [12, 19]: 0.7% | cells in upper right quadrant (Annexin-V+/PI+, necrotic or late-stage apoptotic) [12, 19]: 25.3% | cells in lower left quadrant (Annexin-V−/PI−, nonapoptotic) [12, 20]: 95.9% | cells in lower right quadrant (Annexin-V+/PI−, early apoptotic) [12, 20]: 2.84% | cells in upper left quadrant (PI+, Annexin-V−) [12, 20]: 0.38% | cells in upper right quadrant (Annexin-V+/PI+, necrotic or late-stage apoptotic) [12, 20]: 0.88% | EC50 ([13]; 8 J cm^−2, all cell lines of Table 1): 37 to 5400 nM | EC50 ([13]; 16 J cm^−2, all cell lines of Table 1): 14 to 630 nM | EC50 values, light-induced toxicity (in words) ([13]; broad range of human tumour cell lines): nano-molar range
